Earlier results, collected in patent US12127976B2, “Eye-mountable therapeutic devices, and associated systems and methods” (Twenty Twenty Therapeutics LLC, priority 2018, dated 2024).
Where a name gives a salt, the structure may show the parent alone.

Columns and labels:
[1] = in aqueous humor
[2] = after topical administration; formulated as salts

Row | estimated half-life [1] | Compound | time at which the maximum effect can be detected [2]
1 | ~2.8 h | O=C(O)CCC/C=C\C[C@@H]1[C@@H](CC[C@@H](O)CCc2ccccc2)[C@H](O)C[C@@H]1O [latanoprost acid] | –
2 | – | CC(C)NCC(O)COc1ccc(CCOCC2CC2)cc1 (stereo not drawn) [betaxolol] | about 2 hours
3 | – | CC(C)(C)NC[C@H](O)COc1nsnc1N1CCOCC1 [timolol maleate] | about 2 hours
